Laboratory results: patent publication US20140179606A1, “LEFT VENTRICULAR DIASTOLIC FUNCTION IMPROVING AGENT” (priority 2011, published 2014)

Legend:
[1] = system: acute heart failure model; assay: Evaluation of hemodynamics in acute heart failure model; assay type: in vivo, beagle; settings: for Peak Negative dP/dt Change Ratio (%): indication of left ventricular diastolic function, 60 minutes after administration; for Peak Negative dP/dt Change Ratio (%) / Systemic Vascular Resistance Change Ratio (%) / Peak Positive dP/dt Change Ratio (%) / Left Ventricular End-Diastolic Pressure Change Ratio (%): continuous iv; for Peak Negative dP/dt Change Ratio (%) / Peak Positive dP/dt Change Ratio (%): two increasing doses; for Systemic Vascular Resistance Change Ratio (%): indication of afterload; for Peak Positive dP/dt Change Ratio (%): indication of left ventricular systolic function; for Left Ventricular End-Diastolic Pressure Change Ratio (%): indication of preload
Procedure: The acute heart failure model was produced by the following method. A male beagle (the weight was more than 10 kg) was anesthetized with pentobarbital sodium (30 mg/kg, intravenous administration), and then a tracheal catheter was introduced to the trachea and connected to a ventilator. The frequency of breath of the ventilator was set to 15 strokes per minute; the amount of ventilation was set to 20 mL/kg per stroke, and the respiration was controlled by using a mixed gas (Air:O2=3:0.2 as an indication). The animal was fixed with the lateral position and the hair of the left chest area, left and right femoral areas and cervical region was cut. Pentobarbital sodium (5 mg/kg/hr) was intravenously administered continuously from right cephalic vein, and the anesthesia was continued. The chest was opened at the left fourth rib, and the ascending aorta origin was exfoliated. Lactated Ringer's solution was intravenously administered continuously from the catheter inserted to the left femoral vein (5 mL/min). Further, in order to prevent the arrhythmia from occurring, propranolol hydrochloride (0.3 mL/min) was administered continuously together with the volume overload (mixed with lactated Ringer's solution) until the completion of the experiment. The left anterior descending coronary artery (LAD) was ligated 30 minutes after the administration of lactated Ringer's solution. After the hemodynamics became stable, methoxamine hydrochloride was administered continuously from the left femoral vein. In order to increase the systemic vascular resistance and thus decrease the cardiac output, methoxamine hydrochloride was maintained at the volume of 5 to 10 μg/kg/min so that the cardiac output decreased by 20% or more in comparison with the cardiac output before the volume overload, and methoxamine hydrochloride was administered continuously until the completion of the experiment.
From the point, at which the cardiac output decreased by 20% or more after the initiation of the continuous administration of methoxamine hydrochloride in comparison with the cardiac output before the administration of lactated Ringer's solution and other hemodynamics became stable, physiological saline (0.3 mL/min) was administered from the right femoral vein for 30 minutes (preceding phase of administration). Then, the compound A, (11α,13E,15α)-9-oxo-11,15-dihydroxy-16-(3-methoxymethylphenyl)-17,18,19,20-tetranor-5-tiaprost-13-enoic acid methyl ester (the EP4 agonist described in Example 1 of WO2000/003980, abbreviated to […] below), and carperitide (atrial natriuretic peptide), nitroglycerin (a vasodilator), nicorandil (a vasodilator) and milrinone (a phosphodiesterase III inhibitor: a compound having a cardiac effect and a vasodilation effect), which are existing agents for treating heart failure, were each administered for 30 minutes with increasing the dose gradually from the right femoral vein at the doses in the following table. The administered groups (four examples each) and the doses are shown below.
The measurement of cardiac hemodynamics was conducted every 10 minutes both during the preceding phase of administration and during the continuous administration of each dose.
Through the catheter introducer inserted to the right femoral artery, a pig tale catheter was introduced and indwelled in the left ventricle and connected to a disposable blood pressure transducer, and the left ventricular pressure (LVP) was measured through an amplifier for the measurement. […]

[2] = Toxicity, repeated oral administration to a dog for four weeks; assay type: in vivo; settings: dose up to 30 times the dose showing vasodilation effect on single administration
Description: Toxicity of the compound used for the agent of present invention is very low, and the compound is safe enough to be used as a medicine.

[3] = system: Dahl rat heart failure model; assay: Cardiac function and survival rate using Dahl rat (hypertensive / chronic heart failure model); assay type: in vivo; settings: oral, two times a day for 90 days, compound A 300 μg/kg, milrinone 1000 μg/kg; for survival rate: FIG. 2; for left ventricular diastolic wall strain (DWS) index: FIG. 3
Procedure: A model of hypertensive heart failure, which is diastolic heart failure, was prepared by feeding solid feed for high salt load rat (corresponding to 8% salt) to 47-day-old male DIS/Eis rats (Dahl rats). Solid feed for normal feed rat (corresponding to 0.3% salt) was fed to a normal control group (10 examples).
The test compounds were orally administered repeatedly for 90 days two times a day with the dose of 5 mL/kg using a stomach tube to 13-week-old Dahl rats. The dose of the compound A was 300 μg/kg and the dose of milrinone was 1000 μg/kg (30 examples each).
The cardiac functions were measured with using an ultrasound imaging device under 2% isoflurane anesthesia by a general anesthesia device for an animal before the administration (12 weeks old: grouping value), on the 45th day of the administration and the 91st day of the administration. The hair of the chest area of a rat was removed and the changes in the left ventricular end-diastolic dimension, the left ventricular end-systolic dimension, the end-diastolic left ventricular anterior wall thickness, the end-diastolic left ventricular posterior wall thickness, the end-systolic left ventricular posterior wall thickness and the left ventricular posterior epicardial surface were measured with placing a linear probe on the chest area with M-mode. Further, the left ventricular ejection fraction (LVEF) and the left ventricular diastolic wall strain (DWS) index as the indication of left ventricular diastolic function were calculated.
The general state was observed once or twice a day throughout the experiment period, and dead or alive was confirmed and the general symptoms were recorded.

normal dog = assay: Left ventricular action in a normal dog; assay type: in vivo
Description: From the above results, it was considered that milrinone is not always appropriate for administering to a diastolic heart failure patient with normal systolic function because milrinone has a strong cardiotonic action, while the compound A selectively improves left ventricular diastolic function as compared with the effect to improve systolic function and thus is also effective for a diastolic heart failure patient with normal systolic function as well as a systolic heart failure patient in which both diastolic function and systolic function are impaired.

SMILES	Peak Negative dP/dt Change Ratio (%) [1] [%]	PaO2 (arterial oxygen pressure) change ratio ([1]; continuous iv 3, 10 ng/kg/min) [%]	increase of cardiac output ([1]; continuous iv 3, 10 ng/kg/min)	urine volume change ratio ([1]; continuous iv 3, 10 ng/kg/min) [%]	Systemic Vascular Resistance Change Ratio (%) [1] [%]	Peak Positive dP/dt Change Ratio (%) [1] [%]	Left Ventricular End-Diastolic Pressure Change Ratio (%) [1] [%]	toxicity [2]	survival rate [3]	left ventricular diastolic wall strain (DWS) index [3]	left ventricular diastolic / systolic action in a normal dog (normal dog)
CC[C@H](C)[C@@H]1NC(=O)[C@H](CCCNC(=N)N)NC(=O)[C@H](CC(=O)O)NC(=O)[C@H](CCSC)NC(=O)[C@H](CCCNC(=N)N)NC(=O)CNC(=O)CNC(=O)[C@H](Cc2ccccc2)NC(=O)[C@@H](NC(=O)[C@H](CO)NC(=O)[C@H](CO)NC(=O)[C@H](CCCNC(=N)N)NC(=O)[C@H](CCCNC(=N)N)NC(=O)[C@H](CC(C)C)NC(=O)[C@@H](N)CO)CSSC[C@@H](C(=O)N[C@@H](CC(N)=O)C(=O)N[C@@H](CO)C(=O)N[C@@H](Cc2ccccc2)C(=O)N[C@@H](CCCNC(=N)N)C(=O)N[C@@H](Cc2ccc(O)cc2)C(=O)O)NC(=O)CNC(=O)[C@H](CC(C)C)NC(=O)CNC(=O)[C@H](CO)NC(=O)[C@H](CCC(N)=O)NC(=O)[C@H](C)NC(=O)CNC1=O [Carperitide, carperitide]	−6										
O=C(O)CCCSCCN1C(=O)CC[C@@H]1/C=C/[C@@H](O)Cc1ccc(F)cc1 [Compound A, 4-[(2-{(2R)-2-[(1E,3S)-4-(4-fluorophenyl)-3-hydroxy-1-buten-1-yl]-5-oxo-1-pyrrolidinyl}ethyl)thio]butanoic acid]	48	111.5	about 60%	145.4	−34	16	−42	not found to be toxic	drastically improved the survival rate	remarkably improved DWS	did not show left ventricular diastolic action or left ventricular systolic action
COCc1cccc(CC(O)/C=C/C2C(O)CC(=O)C2CCSCCCC(=O)OC)c1 (stereo not drawn) [Compound B, (11α,13E,15α)-9-oxo-11,15-dihydroxy-16-(3-methoxymethylphenyl)-17,18,19,20-tetranor-5-tiaprost-13-enoic acid methyl ester]	−3				−43	−4	−41				
O=C(O)CCCCCCN1C(=O)CC[C@@H]1CC[C@@H](O)Cc1cccc(C(F)(F)F)c1 [Compound C]	−1				−14	2	−37				
O=C(O)CCCSCCN1C(=O)CC[C@@H]1CC[C@@H](O)c1cccc(Oc2cccc(F)c2)c1 [Compound D]	−5				−42	−9	−46				
Cc1[nH]c(=O)c(C#N)cc1-c1ccncc1 [Milrinone, milrinone]	23					38			the degree of the improvement of the survival rate was small	did not improve DWS	showed a strong left ventricular systolic effect
O=C(NCCO[N+](=O)[O-])c1cccnc1 [Nicorandil, nicorandil]	−7										
O=[N+]([O-])OCC(CO[N+](=O)[O-])O[N+](=O)[O-] [Nitroglycerin, nitroglycerin]	−8										
